According to PubChem BioAssay (NCI):
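Abbreviation: GI50, concentration required for 50% inhibition of growth. Definition used: TGI = concentration required for complete inhibition of growth.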

Assays:
Experiment in all cases: inhibition of tumour cell growth, NCI panel, 384-well format
HT29 colon = tested on: HT29 colon
SF-268 CNS = tested on: SF-268 CNS
HOP-92 NSCLC = tested on: HOP-92 NSCLC
OVCAR-5 ovarian = tested on: OVCAR-5 ovarian
T-47D breast = tested on: T-47D breast
LOX IMVI melanoma = tested on: LOX IMVI melanoma
NCI-H322M lung = tested on: NCI-H322M lung
ACHN renal = tested on: ACHN renal
OVCAR-8 ovarian = tested on: OVCAR-8 ovarian
OVCAR-4 ovarian = tested on: OVCAR-4 ovarian
SR leukemia = tested on: SR leukemia
UACC-257 melanoma = tested on: UACC-257 melanoma
CAKI-1 renal = tested on: CAKI-1 renal
TK-10 renal = tested on: TK-10 renal
KM12 colon = tested on: KM12 colon
NCI-H460 NSCLC = tested on: NCI-H460 NSCLC
HCT-116 colon = tested on: HCT-116 colon
OVCAR-3 ovarian = tested on: OVCAR-3 ovarian
HCT-15 colon = tested on: HCT-15 colon
M14 melanoma = tested on: M14 melanoma
PC-3 prostate = tested on: PC-3 prostate
SNB-75 CNS = tested on: SNB-75 CNS
NCI-H226 lung = tested on: NCI-H226 lung
NCI/ADR-RES ovarian = tested on: NCI/ADR-RES ovarian
MALME-3M melanoma = tested on: MALME-3M melanoma
A498 renal = tested on: A498 renal
HS 578T breast = tested on: HS 578T breast
UACC-62 melanoma = tested on: UACC-62 melanoma
SF-539 CNS = tested on: SF-539 CNS
MCF7 breast = tested on: MCF7 breast
NCI-H522 lung = tested on: NCI-H522 lung
SF-295 CNS = tested on: SF-295 CNS
UO-31 renal = tested on: UO-31 renal
SN12C renal = tested on: SN12C renal
HL-60(TB) leukemia = tested on: HL-60(TB) leukemia
MDA-MB-468 breast = tested on: MDA-MB-468 breast
IGROV1 ovarian = tested on: IGROV1 ovarian
A549 NSCLC = tested on: A549 NSCLC
BT-549 breast = tested on: BT-549 breast
EKVX NSCLC = tested on: EKVX NSCLC
COLO 205 colon = tested on: COLO 205 colon
DU-145 prostate = tested on: DU-145 prostate
SK-OV-3 ovarian = tested on: SK-OV-3 ovarian
MDA-MB-231 breast = tested on: MDA-MB-231 breast
HOP-62 NSCLC = tested on: HOP-62 NSCLC
SW-620 colon = tested on: SW-620 colon
SK-MEL-2 melanoma = tested on: SK-MEL-2 melanoma
786-0 renal = tested on: 786-0 renal
RXF 393 renal = tested on: RXF 393 renal
NCI-H23 lung = tested on: NCI-H23 lung
SNB-19 CNS = tested on: SNB-19 CNS
SK-MEL-5 melanoma = tested on: SK-MEL-5 melanoma
RPMI-8226 leukemia = tested on: RPMI-8226 leukemia
HCC-2998 colon = tested on: HCC-2998 colon
SK-MEL-28 melanoma = tested on: SK-MEL-28 melanoma
K-562 leukemia = tested on: K-562 leukemia
U251 glioblastoma = tested on: U251 glioblastoma
MOLT-4 leukemia = tested on: MOLT-4 leukemia
MDA-MB-435 melanoma = tested on: MDA-MB-435 melanoma

Molecule COc1cc(OC)cc(N(CCNC(C)C)c2ccc3ncc(-c4cnn(C)c4)nc3c2)c1 has a GI50 (HT29 colon) of 3.97 µM, a TGI (HT29 colon) of 11.2 µM and a GI50 (SF-268 CNS) of 4.42 µM. It also gave a TGI (SF-268 CNS) of 15.9 µM, a GI50 (HOP-92 NSCLC) of 2.91 µM and a TGI (HOP-92 NSCLC) of 9.38 µM. The GI50 (OVCAR-5 ovarian) was 5.47 µM, the TGI (OVCAR-5 ovarian) was 17 µM and the GI50 (T-47D breast) was 6.41 µM. The TGI (T-47D breast) was 12.6 µM, the GI50 (LOX IMVI melanoma) was 2.71 µM and the TGI (LOX IMVI melanoma) was 6.09 µM. The GI50 (NCI-H322M lung) was 3.88 µM, the TGI (NCI-H322M lung) was 12.9 µM and the GI50 (ACHN renal) was 2.03 µM. The TGI (ACHN renal) was 5.45 µM, the GI50 (OVCAR-8 ovarian) was 5.09 µM and the TGI (OVCAR-8 ovarian) was 14.1 µM. It also gave a GI50 (OVCAR-4 ovarian) of 4.66 µM, a TGI (OVCAR-4 ovarian) of 17.1 µM and a GI50 (SR leukemia) of 1.57 µM. For the same molecule, the TGI (SR leukemia) was 2.94 µM, the GI50 (UACC-257 melanoma) was 2.28 µM and the TGI (UACC-257 melanoma) was 4.72 µM. It also gave a GI50 (CAKI-1 renal) of 1.59 µM, a TGI (CAKI-1 renal) of 4.16 µM and a GI50 (TK-10 renal) of 2.79 µM. The TGI (TK-10 renal) was 10.1 µM, the GI50 (KM12 colon) was 4.88 µM and the TGI (KM12 colon) was 16.1 µM. It also gave a GI50 (NCI-H460 NSCLC) of 2.63 µM, a TGI (NCI-H460 NSCLC) of 7.1 µM and a GI50 (HCT-116 colon) of 2.96 µM. The TGI (HCT-116 colon) was 9.31 µM, the GI50 (OVCAR-3 ovarian) was 3.62 µM and the TGI (OVCAR-3 ovarian) was 13.1 µM. For the same molecule, the GI50 (HCT-15 colon) was 2.99 µM, the TGI (HCT-15 colon) was 10.1 µM and the GI50 (M14 melanoma) was 2.85 µM. For the same molecule, the TGI (M14 melanoma) was 7.68 µM, the GI50 (PC-3 prostate) was 3.61 µM and the TGI (PC-3 prostate) was 13.1 µM. The GI50 (SNB-75 CNS) was 0.132 µM, the TGI (SNB-75 CNS) was 1.69 µM and the GI50 (NCI-H226 lung) was 2.57 µM. The TGI (NCI-H226 lung) was 11 µM, the GI50 (NCI/ADR-RES ovarian) was 3.56 µM and the TGI (NCI/ADR-RES ovarian) was 11.8 µM. For the same molecule, the GI50 (MALME-3M melanoma) was 2.27 µM, the TGI (MALME-3M melanoma) was 4.97 µM and the GI50 (A498 renal) was 2.68 µM. It also gave a TGI (A498 renal) of 8.53 µM, a GI50 (HS 578T breast) of 1.5 µM and a TGI (HS 578T breast) of 3.73 µM. For the same molecule, the GI50 (UACC-62 melanoma) was 3.49 µM, the TGI (UACC-62 melanoma) was 12.4 µM and the GI50 (SF-539 CNS) was 0.946 µM. It also gave a TGI (SF-539 CNS) of 7.77 µM, a GI50 (MCF7 breast) of 7.81 µM and a TGI (MCF7 breast) of 15.3 µM. For the same molecule, the GI50 (NCI-H522 lung) was 3.44 µM, the TGI (NCI-H522 lung) was 10.3 µM and the GI50 (SF-295 CNS) was 9.3 µM. For the same molecule, the TGI (SF-295 CNS) was 18.3 µM, the GI50 (UO-31 renal) was 3.04 µM and the TGI (UO-31 renal) was 8.81 µM. For the same molecule, the GI50 (SN12C renal) was 3.19 µM, the TGI (SN12C renal) was 10.8 µM and the GI50 (HL-60(TB) leukemia) was 2.51 µM. It also gave a TGI (HL-60(TB) leukemia) of 4.65 µM, a GI50 (MDA-MB-468 breast) of 2.01 µM and a TGI (MDA-MB-468 breast) of 4.47 µM. For the same molecule, the GI50 (IGROV1 ovarian) was 2.19 µM, the TGI (IGROV1 ovarian) was 5.78 µM and the GI50 (A549 NSCLC) was 3.73 µM. It also gave a TGI (A549 NSCLC) of 11.2 µM, a GI50 (BT-549 breast) of 0.63 µM and a TGI (BT-549 breast) of 5.83 µM. The GI50 (EKVX NSCLC) was 7.26 µM, the TGI (EKVX NSCLC) was 15.7 µM and the GI50 (COLO 205 colon) was 4.59 µM. It also gave a TGI (COLO 205 colon) of 12.6 µM, a GI50 (DU-145 prostate) of 4.12 µM and a TGI (DU-145 prostate) of 14 µM. The GI50 (SK-OV-3 ovarian) was 2.01 µM, the TGI (SK-OV-3 ovarian) was 5.35 µM and the GI50 (MDA-MB-231 breast) was 2.75 µM. For the same molecule, the TGI (MDA-MB-231 breast) was 8.18 µM, the GI50 (HOP-62 NSCLC) was 4.16 µM and the TGI (HOP-62 NSCLC) was 13 µM. For the same molecule, the GI50 (SW-620 colon) was 4.34 µM, the TGI (SW-620 colon) was 14.2 µM and the GI50 (SK-MEL-2 melanoma) was 2.15 µM. It also gave a TGI (SK-MEL-2 melanoma) of 4.8 µM, a GI50 ([…]-0 renal) of 2.17 µM and a TGI (786-0 renal) of 5.11 µM. The GI50 (RXF 393 renal) was 1.02 µM, the TGI (RXF 393 renal) was 2.89 µM and the GI50 (NCI-H23 lung) was 4.66 µM. It also gave a TGI (NCI-H23 lung) of 13.5 µM, a GI50 (SNB-19 CNS) of 9.29 µM and a TGI (SNB-19 CNS) of 22 µM. The GI50 (SK-MEL-5 melanoma) was 1.66 µM, the TGI (SK-MEL-5 melanoma) was 3.66 µM and the GI50 (RPMI-8226 leukemia) was 3.68 µM. It also gave a TGI (RPMI-8226 leukemia) of 12.3 µM, a GI50 (HCC-2998 colon) of 4.52 µM and a TGI (HCC-2998 colon) of 9.47 µM. It also gave a GI50 (SK-MEL-28 melanoma) of 6.2 µM, a TGI (SK-MEL-28 melanoma) of 16.4 µM and a GI50 (K-562 leukemia) of 0.89 µM. It also gave a TGI (K-562 leukemia) of 2.15 µM, a GI50 (U251 glioblastoma) of 5.92 µM and a TGI (U251 glioblastoma) of 14.8 µM. The GI50 (MOLT-4 leukemia) was 1.51 µM, the TGI (MOLT-4 leukemia) was 2.93 µM and the GI50 (MDA-MB-435 melanoma) was 3.49 µM. The TGI (MDA-MB-435 melanoma) was 10.6 µM.
